Laboratory results: EP0654473A1, “Cyclopropane derivatives and antiviral agents containing the same” (Ajinomoto Co., Inc., priority 1993, dated 1995)
Counter-ions that a name gives are not always drawn.

Experiments:
HSV-1 (Tomioka strain) = assay: Efficacy test by oral administration in HSV-1 infected mice; assay type: in vivo, CDF-1 mouse; parameters: Survival Ratio after 21 days: unit: %; details: for Average Survival days / Survival Ratio after 21 days: HSV-1 i.p. infected CDF-1 mice; for Survival Ratio after 21 days: 10 mice per group
Description: A 4-week-age male CDF-1 mouse was intraperitoneally infected with HSV-1 (Tomioka strain) in an amount of 2.4 × 10⁵ pfu/mouse. Three hours after the infection, administration of each test compound was started. The test compound was dissolved in 0.2 ml of distilled water for injection use and intragastrically administered via catheter once a day for 5 days in a dose of 0.625, 1.25, or 2.5 µmol/kg/day. Each of the test groups consisted of 10 mice, and the survival ratio after 21 days from the administration and the average survival days were obtained.

[1] = Measurement of oral absorbability (plasma AUC after oral administration); details: in vivo, 0.1 mmol/kg in physiological saline, male ICR mouse, plasma concentration of 9-[1'S,2'R-bis(hydroxymethyl)cyclopropan-1'-yl]methylguanine by HPLC, 15 minutes to 4 hours
Description: Each of the test compounds was dissolved in 0.2 ml of physiological saline and orally administered to 5-week-age male ICR mouse in a dose of 0.1 mmol/kg. After 15 minutes, 30 minutes, 1 hour, 2 hours, or 4 hours from the administration, blood was collected from three mice, respectively, and centrifuged at 3,000 rpm for 10 minutes to obtain a plasma. A 20 % trichloroacetic acid aqueous solution (100 µl) was added to the plasma (100 µl), and the resulting mixture was shaken and then centrifuged at 8,000 rpm for 1 minutes to obtain a supernatant. The concentration of 9-[1'S,2'R-bis(hydroxymethyl)cyclopropan-1'-yl]methylguanine in the supernatant was measured by HPLC and the area under the blood concentration time curve (AUC) was calculated.

[2] = 0.625 µmol/kg/day intragastrically once a day for 5 days
[3] = 1.25 µmol/kg/day intragastrically once a day for 5 days
[4] = 2.5 µmol/kg/day intragastrically once a day for 5 days

Compound	Average Survival days (HSV-1 (Tomioka strain); [2]) [days]	Survival Ratio after 21 days (HSV-1 (Tomioka strain); [2])	Average Survival days (HSV-1 (Tomioka strain); [3]) [days]	Survival Ratio after 21 days (HSV-1 (Tomioka strain); [3])	Average Survival days (HSV-1 (Tomioka strain); [4]) [days]	Survival Ratio after 21 days (HSV-1 (Tomioka strain); [4])	AUC at 4 h [1] [µM·h]	efficacy (HSV-1 (Tomioka strain); in words, compared with 9-[1'S,2'R-bis(hydroxymethyl)cyclopropan-1'-yl]methylguanine)
Nc1nc2c(ncn2C[C@]2(CO)C[C@H]2CO)c(=O)[nH]1 [9-[1'S,2'R-bis(hydroxymethyl)cyclopropan-1'-yl]methylguanine]	7.8 ± 1.2	0	9.4 ± 1.9	0	11.3 ± 3.1	60	16	–
C[C@H](N)C(=O)OC[C@@H]1C[C@@]1(COC(=O)[C@H](C)N)Cn1cnc2c(=O)[nH]c(N)nc21 [Compound of Example 1, 9-[1'S,2'R-bis(O-L-alanyloxymethyl)cyclopropan-1'-yl]methylguanine trihydrochloride]	9.7 ± 2.7	40	14.3 ± 4.1	60	–	100	–	superior efficacy
